In the test the test system is male Hartley guinea pigs. The test can be described thus: Antitussive effect test: capsaicin-induced cough in guinea pigs with SO2-induced respiratory tract inflammation. It is filed as in vivo, guinea pig. To be noted: for Frequency of cough: capsaicin 10^-6 mol/l spray, coughs counted over 15 minutes, control group 22.4 ± 0.8; for Antitussive effect (in words): summary of Table 1, administered alone or in combination. The source says: The synergetic effect of using fudosteine and an antitussive compound in combination was examined according to the following method.
Five male Hartley guinea pigs for one group, each having a weight of 300-400 g, were used as test animals. According to the method of Miyata et al. (Arch. Int. Pharmacodyn. Ther., vol. 304, p. 277, 1990), the guinea pigs were exposed to SO2 gas using an exposure apparatus for two hours a day in eight consecutive days to cause respiratory tract inflammation. The samples of which the components and dose are shown in Table 1 were orally administered before exposure to SO2 gas once a day in eight consecutive days since the start date of exposure. The guinea pigs were confined in a chamber without being anesthetized. On the date following the last SO2 exposure date, capsaicin (10^−6 mol/l) was sprayed over the chamber for two minutes using a ultrasonic nebulizer (TUR-3200, Nihon Kohden Corporation) to cause cough in the guinea pigs. […] The frequency of cough during this period was counted.

For the compound `COc1ccc2c(c1)[C@]13CCCC[C@@H]1[C@H](C2)N(C)CC3` [Dextromethorphan], the “Antitussive effect (in words)” value is “exhibited an antitussive effect”. Further, the Frequency of cough (dextromethorphan 150 mg/kg orally once a day for 8 days) worked out at 13.6 ± 1.0. The Frequency of cough (dextromethorphan 300 mg/kg orally once a day for 8 days) is listed as 10.2 ± 0.6 ^$.
On to `N[C@@H](CSCCCO)C(=O)O` [Fudosteine, S-(3-hydroxypropyl)-L-cysteine], for which the “Antitussive effect (in words)” value was “did not exhibit an antitussive effect”. Besides, the Frequency of cough (fudosteine 30 mg/kg orally once a day for 8 days) came to 22.6 ± 1.1.

The values are drawn from patent publication US20040147605A1, “Drug preparations” (priority 2001, published 2004).
